pIC50: −log10 of the molar value.
What was measured:
[1] = test system: isolated-Langendorff perfused rat hearts; assay: isolated-Langendorff perfused rat hearts; settings: 10^-8 -3×10^-6 M
α2-adrenergic receptors = assay: α2-adrenergic receptor binding
β1-adrenergic receptors = assay: β1-adrenergic receptor binding
[2] = test system: α-aminobuteric acid receptors; assay: α-aminobuteric acid receptor binding
A1 adenosine receptor = molecular target: T1, A1 adenosine receptor (Rattus norvegicus, UniProt P25099); assay: A1 adenosine receptor binding, isolated rat brain membranes
T1 construct: isolated rat brain membranes; from tissue; host or cells: rat brain membranes
T1 sequence (P25099 1-326): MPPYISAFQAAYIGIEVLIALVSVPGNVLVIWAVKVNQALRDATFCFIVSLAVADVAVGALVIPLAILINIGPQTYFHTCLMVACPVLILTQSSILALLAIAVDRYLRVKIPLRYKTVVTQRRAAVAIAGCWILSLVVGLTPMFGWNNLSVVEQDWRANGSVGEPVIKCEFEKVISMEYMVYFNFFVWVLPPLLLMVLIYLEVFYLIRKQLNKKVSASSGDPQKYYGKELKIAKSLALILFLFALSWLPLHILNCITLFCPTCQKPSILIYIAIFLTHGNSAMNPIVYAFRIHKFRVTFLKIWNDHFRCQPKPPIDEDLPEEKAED

[3] = test system: anesthetized normotensive dogs; assay: hemodynamics in anesthetized normotensive dogs; format: in vivo, dog; settings: IV
Protocol: Such administration is by a method essentially described as follows:
Mongrel dogs of either sex are anesthetized with sodium pentobarbital (30 mg/kg IV) and mechanically ventilated with room air. The left and right femoral veins are cannulated for injection of test compound and maintenance anesthesia (3.5 mg/kg/hr), respectively. Cardiac output is measured by a thermodilution catheter positioned in the pulmonary artery. Left ventricular contractility (dP/dt) is measured by a Millar Mikro-Tip catheter pressure transducer positioned in the left ventricular cavity via the left carotid artery, heart rate, and lead II electrocardiogram are recorded continuously. Each animal is allowed 30 minutes to stabilize and hemodynamic control pressures, cardiac output, and electrocardiographic measurements are recorded. Compounds are dissolved in saline if possible and pH adjusted. If another solvent is required, vehicle control experiments are performed. Test compounds are administered as rising bolus doses usually starting at 0.1 midtherapeutic and increasing in half log doses to 30 X midtherapeutic. All cardiovascular measurements are repeated after each dose.
Agent induced effects on any of the cardiovascular measurements are recorded.

muscarinic receptors = assay: muscarinic receptor binding
serotonergic receptors = assay: serotonergic receptor binding
α1-adrenergic receptors = assay: α1-adrenergic receptor binding
β2-adrenergic receptors = assay: β2-adrenergic receptor binding
[4] = test system: anesthetized dog with propranolol-induced myocardial depression; assay: propranolol-induced acute heart failure in the anesthetized dog; format: in vivo; settings: B 6 μg/kg/min infusion, A 0.01 to 3.0 mg/kg IV bolus
Protocol: CONT indicates the control before propanolol induced cardiac depression, DEP indicates a stable propanolol depression, and TD indicates administration of the initial test drug, either saline or (R)-N-(2,3-dihydro-1H-inden-1-yl)adenosine (B).
Adult mongrel dogs of either sex are anesthetized with sodium pentobarbital (32 mg/kg) IV, trachea intubated, and ventilated artificially. Anesthesia is maintained by a continuous infusion of sodium pentobarbital (3.0 mg/kg/hr) through a femoral vein cannula. Three additional venous cannulae are used for (1) propranolol infusion, (2) (R)-N-(2,3-dihydro-1H-inden-1-yl)adenosine or saline infusion and (3) bolus injections of either 4,5-dihydro-6-[4-(1H-imidazol-1-yl)phenyl]-3(2H)pyridazinone, hydrochloride salt or saline. Systemic arterial blood pressure, left ventricular contractility (dP/dt), and heart rate are recorded continuously. Cardiac output, measured by thermodilution, is recorded before myocardial depression, when stable myocardial depression is achieved (approximately 30 minutes), and ten minutes following each bolus dose. Following surgical preparation, 30 minutes are allowed for hemodynamic stabilization prior to induction of the myocardial depression. […]

[5] = test system: anesthetized-vagotomized normotensive rats; assay: hemodynamics in anesthetized-vagotomized normotensive rats; format: in vivo, rat; settings: IV 3 to 300 mg/kg
Protocol: In this procedure the (R)-N-(2,3-dihydro-1H-inden-1-yl)adenosine (B) is administered intravenously (IV) at 3 to 300 mg/kg in anesthetized-vagotomized normotensive rats.

dopaminergic receptors = assay: dopaminergic receptor binding
[6] = combination compared with A alone at comparable doses

OC[C@H]1O[C@@H](n2cnc3c(N[C@@H]4CCc5ccccc54)ncnc32)[C@H](O)[C@@H]1O [B, (R)-N-(2,3-dihydro-1H-inden-1-yl)adenosine]
heart rate [1]: decreases
coronary flow ([1]; isolated perfused rat heart): Concentration-dependent increases
binding to α2-adrenergic receptors (α2-adrenergic receptors): does not significantly bind
binding to β1-adrenergic receptors (β1-adrenergic receptors): does not significantly bind
binding to α-aminobuteric acid receptors [2]: does not significantly bind
pIC50 (A1 adenosine receptor): 7.52
calculated total peripheral resistance [3]: dose-related decreases
heart rate [3]: dose-related decreases
mean arterial blood pressure [3]: dose-related decreases
binding to muscarinic receptors (muscarinic receptors): does not significantly bind
binding to serotonergic receptors (serotonergic receptors): does not significantly bind
binding to α1-adrenergic receptors (α1-adrenergic receptors): does not significantly bind
binding to β2-adrenergic receptors (β2-adrenergic receptors): does not significantly bind
pressure volume relationship of the left ventricle (LVEDP vs stroke volume) [4]: did not increase dP/dt, cardiac output, or affect the pressure volume relationship
cardiac output [4, 6]: did not increase
myocardial contractility (dP/dt of left ventricular pressure) [4, 6]: did not increase
heart rate [5]: dose-related decreases
mean arterial blood pressure [5]: dose-related decreases
binding to dopaminergic receptors (dopaminergic receptors): does not significantly bind
